According to US20230085307A1, “PYRIDAZINONE COMPOUND AND HERBICIDE” (NISSAN CHEMICAL CORPORATION, priority 2019, published 2023):

Legend:
southern crabgrass [1] = assay: Test Example 5: herbicidal effect by foliage application, plastic box (Table 20, symbol F); assay type: in vivo, southern crabgrass (Digitaria ciliaris); conditions: foliage application, 320 g/ha, evaluated three weeks after application
In short: (§1)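 Sow seeds spot-wise in sterilized diluvial soil; cover with ~1.5 cm soil. Grow 14 days in greenhouse, 25° C. to 30° C. Spray foliage with emulsion diluted to predetermined amount. Rate effect after 3 weeks.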

blackgrass [2] = assay: Test Example 4: herbicidal effect by soil treatment (Table 19, symbol J); assay type: in vivo, blackgrass (Alopecurus myosuroides); conditions: 320 g/ha
In short: (§2)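 Applied as a water-diluted emulsion, the compound was sprayed onto soil covering newly sown seeds. Evaluation came three weeks after application, in a greenhouse held at 25° C. to 30° C.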

barnyard grass [3] = assay: Test Example 3: herbicidal effect by foliage application, Wagner pot (Table 18, symbol H); assay type: in vivo, barnyard grass (Echinochloa crus-galli); conditions: 320 g/ha
In short: (§3)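 Plants were sown in alluvial soil held under 0.1–0.5 cm standing water and grown 14 days in a greenhouse at 25–30 °C. An emulsifiable formulation, water-diluted to the set dose, was then sprayed onto the foliage, and effects were scored three weeks later using previously defined criteria.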

persian speedwell = assay: Test Example 5: herbicidal effect by foliage application, plastic box (Table 20, symbol R); assay type: in vivo, Persian speedwell (Veronica persica); conditions: foliage application, 320 g/ha, evaluated three weeks after application
In short: as §1

windgrass [4] = assay: Test Example 4: herbicidal effect by soil treatment (Table 19, symbol L); assay type: in vivo, windgrass (Apera spica-venti); conditions: 320 g/ha
In short: as §2

green foxtail [5] = assay: Test Example 4: herbicidal effect by soil treatment (Table 19, symbol G); assay type: in vivo, green foxtail (Setaria viridis); conditions: 320 g/ha
In short: as §2

velvetleaf [6] = assay: Test Example 4: herbicidal effect by soil treatment (Table 19, symbol M); assay type: in vivo, velvetleaf (Abutilon theophrasti); conditions: 320 g/ha
In short: as §2

wild oat [7] = assay: Test Example 4: herbicidal effect by soil treatment (Table 19, symbol I); assay type: in vivo, wild oat (Avena fatua); conditions: 320 g/ha
In short: as §2

chickweed [8] = assay: Test Example 5: herbicidal effect by foliage application, plastic box (Table 20, symbol P); assay type: in vivo, common chickweed (Stellaria media); conditions: foliage application, 320 g/ha, evaluated three weeks after application
In short: as §1

barnyard grass [9] = assay: Test Example 4: herbicidal effect by soil treatment (Table 19, symbol H); assay type: in vivo, barnyard grass (Echinochloa crus-galli); conditions: 320 g/ha
In short: as §2

chickweed [10] = assay: Test Example 4: herbicidal effect by soil treatment (Table 19, symbol P); assay type: in vivo, common chickweed (Stellaria media); conditions: 320 g/ha
In short: as §2

rice flat sedge = assay: Test Example 3: herbicidal effect by foliage application, Wagner pot (Table 18, symbol E); assay type: in vivo, rice flat sedge (Cyperus iria); conditions: 320 g/ha
In short: as §3

Japanese bulrush = assay: Test Example 1: herbicidal activity, application before weed generation under submerged conditions (Table 16, symbol B); assay type: in vivo, Japanese bulrush (Schoenoplectus juncoides); conditions: 320 g/ha applied herbicide
In short: (§4)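 Emulsion formulation, water-diluted to set dose, was put onto the flooded surface (4 cm depth, alluvial soil) the same day weeds were sown and 2.5-leaf rice transplanted. After 3 weeks at 25-30 °C under glass, each species was rated 0 (≤5% kill) to 5 (≥90% kill).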

lambsquarters [11] = assay: Test Example 5: herbicidal effect by foliage application, plastic box (Table 20, symbol O); assay type: in vivo, lambsquarters (Chenopodium album); conditions: foliage application, 320 g/ha, evaluated three weeks after application
In short: as §1

velvetleaf [12] = assay: Test Example 5: herbicidal effect by foliage application, plastic box (Table 20, symbol M); assay type: in vivo, velvetleaf (Abutilon theophrasti); conditions: foliage application, 320 g/ha, evaluated three weeks after application
In short: as §1

barnyard grass [13] = assay: Test Example 5: herbicidal effect by foliage application, plastic box (Table 20, symbol H); assay type: in vivo, barnyard grass (Echinochloa crus-galli); conditions: foliage application, 320 g/ha, evaluated three weeks after application
In short: as §1

oval-leafed pondweed = assay: Test Example 1: herbicidal activity, application before weed generation under submerged conditions (Table 16, symbol C); assay type: in vivo, oval-leafed pondweed (Monochoria vaginalis); conditions: 320 g/ha applied herbicide
In short: as §4

lambsquarters [14] = assay: Test Example 4: herbicidal effect by soil treatment (Table 19, symbol O); assay type: in vivo, lambsquarters (Chenopodium album); conditions: 320 g/ha
In short: as §2

redroot pigweed [15] = assay: Test Example 4: herbicidal effect by soil treatment (Table 19, symbol N); assay type: in vivo, redroot pigweed (Amaranthus retroflexus); conditions: 320 g/ha
In short: as §2

late watergrass = assay: Test Example 1: herbicidal activity, application before weed generation under submerged conditions (Table 16, symbol A); assay type: in vivo, late watergrass (Echinochloa oryzicola); conditions: 320 g/ha applied herbicide
In short: as §4

southern crabgrass [16] = assay: Test Example 4: herbicidal effect by soil treatment (Table 19, symbol F); assay type: in vivo, southern crabgrass (Digitaria ciliaris); conditions: 320 g/ha
In short: as §2

green foxtail [17] = assay: Test Example 5: herbicidal effect by foliage application, plastic box (Table 20, symbol G); assay type: in vivo, green foxtail (Setaria viridis); conditions: foliage application, 320 g/ha, evaluated three weeks after application
In short: as §1

wild oat [18] = assay: Test Example 5: herbicidal effect by foliage application, plastic box (Table 20, symbol I); assay type: in vivo, wild oat (Avena fatua); conditions: foliage application, 320 g/ha, evaluated three weeks after application
In short: as §1

redroot pigweed [19] = assay: Test Example 5: herbicidal effect by foliage application, plastic box (Table 20, symbol N); assay type: in vivo, redroot pigweed (Amaranthus retroflexus); conditions: foliage application, 320 g/ha, evaluated three weeks after application
In short: as §1

windgrass [20] = assay: Test Example 5: herbicidal effect by foliage application, plastic box (Table 20, symbol L); assay type: in vivo, windgrass (Apera spica-venti); conditions: foliage application, 320 g/ha, evaluated three weeks after application
In short: as §1

Italian ryegrass [21] = assay: Test Example 5: herbicidal effect by foliage application, plastic box (Table 20, symbol K); assay type: in vivo, Italian ryegrass (Lolium multiflorum); conditions: foliage application, 320 g/ha, evaluated three weeks after application
In short: as §1

blackgrass [22] = assay: Test Example 5: herbicidal effect by foliage application, plastic box (Table 20, symbol J); assay type: in vivo, blackgrass (Alopecurus myosuroides); conditions: foliage application, 320 g/ha, evaluated three weeks after application
In short: as §1

Chinese sprangletop = assay: Test Example 3: herbicidal effect by foliage application, Wagner pot (Table 18, symbol D); assay type: in vivo, chinese sprangletop (Leptochloa chinensis); conditions: 320 g/ha
In short: as §3

Italian ryegrass [23] = assay: Test Example 4: herbicidal effect by soil treatment (Table 19, symbol K); assay type: in vivo, Italian ryegrass (Lolium multiflorum); conditions: 320 g/ha
In short: as §2

In the case of Cc1nn(C)c(=O)c(-c2c(-c3ccc(OS(=O)(=O)C(F)(F)F)cc3)sc3ccc(F)cc23)c1O [2-075], the “herbicidal effect on F: southern crabgrass” value (southern crabgrass [1]) is reported as 0 (Herbicidal rate of 5% or less (almost no effect)), the “herbicidal effect rating, J: blackgrass” value (blackgrass [2]) is reported as 0 (Herbicidal rate of 5% or less (almost no effect)) and the “herbicidal effect on H (barnyard grass), rating 0-5” value (barnyard grass [3]) is reported as 2 (Herbicidal rate of 20% or more and less than 40%). For the same compound, the “herbicidal effect on R: persian speedwell” value (persian speedwell) was 5 (Herbicidal rate of 90% or more (almost completely withered)), the “herbicidal effect rating, L: windgrass” value (windgrass [4]) was 0 (Herbicidal rate of 5% or less (almost no effect)) and the “herbicidal effect rating, G: green foxtail” value (green foxtail [5]) was 0 (Herbicidal rate of 5% or less (almost no effect)). The “herbicidal effect rating, M: velvetleaf” value (velvetleaf [6]) was 0 (Herbicidal rate of 5% or less (almost no effect)), the “herbicidal effect rating, I: wild oat” value (wild oat [7]) was 0 (Herbicidal rate of 5% or less (almost no effect)) and the “herbicidal effect on P: chickweed” value (chickweed [8]) was 3 (Herbicidal rate of 40% or more and less than 70%). For the same compound, the “herbicidal effect rating, H: barnyard grass” value (barnyard grass [9]) was 0 (Herbicidal rate of 5% or less (almost no effect)), the “herbicidal effect rating, P: chickweed” value (chickweed [10]) was 0 (Herbicidal rate of 5% or less (almost no effect)) and the “herbicidal effect on E (rice flat sedge), rating 0-5” value (rice flat sedge) was 4 (Herbicidal rate of 70% or more and less than 90%). For the same compound, the “Herbicidal effect on B: Japanese bulrush (grade 0-5)” value (Japanese bulrush) was 2 (Herbicidal rate of 20% or more and less than 40%), the “herbicidal effect on O: lambsquarters” value (lambsquarters [11]) was 3 (Herbicidal rate of 40% or more and less than 70%) and the “herbicidal effect on M: velvetleaf” value (velvetleaf [12]) was 3 (Herbicidal rate of 40% or more and less than 70%). The “herbicidal effect on H: barnyard grass” value (barnyard grass [13]) was 0 (Herbicidal rate of 5% or less (almost no effect)), the “Herbicidal effect on C: oval-leafed pondweed (grade 0-5)” value (oval-leafed pondweed) was 0 (Herbicidal rate of 5% or less (almost no effect)) and the “herbicidal effect rating, O: lambsquarters” value (lambsquarters [14]) was 3 (Herbicidal rate of 40% or more and less than 70%). The “herbicidal effect rating, N: redroot pigweed” value (redroot pigweed [15]) was 1 (Herbicidal rate of 5% or more and less than 20%), the “Herbicidal effect on A: late watergrass (grade 0-5)” value (late watergrass) was 2 (Herbicidal rate of 20% or more and less than 40%) and the “herbicidal effect rating, F: southern crabgrass” value (southern crabgrass [16]) was 0 (Herbicidal rate of 5% or less (almost no effect)). The “herbicidal effect on G: green foxtail” value (green foxtail [17]) was 0 (Herbicidal rate of 5% or less (almost no effect)), the “herbicidal effect on I: wild oat” value (wild oat [18]) was 0 (Herbicidal rate of 5% or less (almost no effect)) and the “herbicidal effect on N: redroot pigweed” value (redroot pigweed [19]) was 2 (Herbicidal rate of 20% or more and less than 40%). For the same compound, the “herbicidal effect on L: windgrass” value (windgrass [20]) was 0 (Herbicidal rate of 5% or less (almost no effect)), the “herbicidal effect on K: Italian ryegrass” value (Italian ryegrass [21]) was 0 (Herbicidal rate of 5% or less (almost no effect)) and the “herbicidal effect on J: blackgrass” value (blackgrass [22]) was 0 (Herbicidal rate of 5% or less (almost no effect)). For the same compound, the “herbicidal effect on D (Chinese sprangletop), rating 0-5” value (Chinese sprangletop) was 2 (Herbicidal rate of 20% or more and less than 40%) and the “herbicidal effect rating, K: Italian ryegrass” value (Italian ryegrass [23]) was 0 (Herbicidal rate of 5% or less (almost no effect)).
